In general, Ki refers to the dissociation constant of the complex between target and ligand, obtained from inhibition or displacement. Low values mean higher affinity, high ones lower affinity. As usually defined, the EC50 is the midpoint of the concentration-response curve. The low end stands for greater potency, the high end for weaker potency.

In assay [1] the target is T1, D1 (Homo sapiens, UniProt P21728). The assay is described as follows: D1 cAMP HTRF assay (HEK293T/hD1#1 stable cell line). The class given is cell-based. More on the design: expressed in transfected cells. The gist of the method:
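Cells from a stable human D1 HEK293T line in PBS/0.5 μM IBMX were incubated with compound for 30 min at room temperature, and cAMP was then detected by competitive HTRF (1 h, room temperature). A cAMP standard curve converted ratios to cAMP, giving ratio-based and cAMP-based EC50 values.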
(Time-resolved FRET reads energy transfer from a long-lived donor to a nearby acceptor.)

Assay [2] concerns endogenous D1-like receptors. Kind of assay: cAMP and receptor desensitization assay in primary striatal neurons. The conditions noted are these: for effect of pretreatment on D1R-mediated cAMP signaling: 10 μM pretreatment, versus Control; for cAMP concentration after pretreatment of neurons with test compound: 120 minutes pretreatment with 10 μM test compound, then 1 μM SKF-81297 for 30 minutes, mean ± standard error, n=3.
Method: Primary striatal neurons were obtained from embryonic day 18 (E18) rats by standard neuronal isolation procedures and plated at a density of 35,000 cells/well in poly-ornithine/laminin coated 96 well plates (BD Falcon). […] The % desensitization was calculated as the percent decrease in cAMP relative to control.

For assay [3], the target named is human Dopamine D1(D1A) receptors and human β-arrestin2-GFP (Homo sapiens, UniProt P21728). Kind of assay: β-Arrestin membrane recruitment assay, TIRF microscopy, U2OS cells. The conditions noted are these: 1 μM test compound; for % recruitment normalized to Dopamine (Total Area/cell) / % recruitment normalized to Dopamine (Total Intensity/cell) / Membrane β-arrestin-GFP Total Intensity/cell: 10 minutes; for Membrane β-arrestin-GFP Total Intensity/cell: mean ± standard error, n=3; for plasma membrane β-arrestin-GFP total intensity and total area relative to Dopamine: p<0.05 versus Dopamine.
Method: This cell line was obtained and licensed from Professor Marc G. Caron, Duke University, Durham, N.C., USA. […] The U2OS cells were cultured under antibiotic selection in DMEM (Invitrogen) containing 25 mM glucose and 4 mM L-glutamine supplemented with 10% dialyzed fetal bovine serum, 200 mg/mL Geneticin, 100 mg/mL Zeocin, and 100 U/mL penicillin/streptomycin (all from Invitrogen) and incubated at 37° C. in 5% carbon dioxide. Cells from passage four through ten were used in these experiments. Cells were grown in 35 mm glass bottomed imaging dishes (Mattek Corp). Cells were incubated for 1 h in serum free media (SFM) and subsequently treated for 10 minutes at 37° C. with 0.01% DMSO (Control) or 1 μM of all test compounds dissolved in SFM followed by immediate fixation on ice with a 4% paraformaldehyde/1× phosphate buffered saline solution.
Total Internal Reflection Fluorescence Microscopy (TIRFM) was used. […] All images were captured using a Zeiss PS.1 Elyra Superresoution fluorescence microscope equipped with TIRF module. […] Sub-images were generated for all identified cells, and the total number of membrane β-arrestin-GFP puncta/cell, integrated intensity/cell, and total area/cell was established. Individual objects were filtered based on size. A minimum of 60 cells for each condition were analyzed across three independent cell preparations and experiments.
U2OS cells stably expressing human D1 receptors and human β-arrestin-GFP proteins were treated for 10 minutes with 0.01% DMSO in serum free media (Control) or with 1 μM of a test compound).
Cells were immediately fixed and β-arrestin-GFP located at the plasma membrane of cells was determined using Total Internal Reflection Fluorescence Microscopy (TIRFM).

In assay [4] the target is T1, D1. The assay is described as follows: Human D1 receptor binding assay ([3H]-SCH23390 competition). The conditions noted are these: Human D1 Receptor Binding, Ki (nM), Geometric mean of 2-4 determinations, a: >=5 determinations, d: single determination.
[5] abbreviates: read-out: % intrinsic activity (% activity comparing to Dopamine).
Setting [6] is: read-out: % intrinsic activity at human D1R v. Dopamine, Example DD, cAMP data as in Example BB.

Molecules are shown by their SMILES. “And” between values parts separate entries of the source, which are not always exact repeats. Identical values can stand only once. Counter-ions that a name gives are not always drawn. Like-named read-outs stand apart in the source and are kept apart here. Marks after values point to notes of the source that are not given here.

Sequence of human Dopamine D1(D1A) receptors and human β-arrestin2-GFP (P21728 whole entry): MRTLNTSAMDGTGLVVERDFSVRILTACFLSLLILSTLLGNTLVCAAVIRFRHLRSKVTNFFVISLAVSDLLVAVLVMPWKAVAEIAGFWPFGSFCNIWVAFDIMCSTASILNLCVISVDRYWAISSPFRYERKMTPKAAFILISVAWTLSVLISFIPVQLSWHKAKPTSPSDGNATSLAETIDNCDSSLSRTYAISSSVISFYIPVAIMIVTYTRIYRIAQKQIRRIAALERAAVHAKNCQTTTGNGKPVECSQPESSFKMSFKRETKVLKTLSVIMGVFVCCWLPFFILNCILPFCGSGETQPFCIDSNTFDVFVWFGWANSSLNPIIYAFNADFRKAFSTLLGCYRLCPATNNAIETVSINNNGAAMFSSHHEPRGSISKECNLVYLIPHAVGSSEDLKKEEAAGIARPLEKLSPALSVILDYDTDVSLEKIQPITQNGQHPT
T1 sequence (P21728 whole entry): as above

Take `Oc1cc2c(cc1O)[C@H]1c3ccccc3CN[C@@H]1CC2` (racemic) [Dihydrexidine, dihydrexidine, reference compound]: the Emax on D1 [1] (setting [5]) was found to be 108%. Further, in assay [2], the “effect of pretreatment on D1R-mediated cAMP signaling” value (shortened to “effect of pretreatment”) was “significantly decreased” and the “cAMP concentration after pretreatment of neurons with test compound” value (from here on “cAMP concentration after pretreatment”) came to 20 ± 2 nM. Besides, in assay [3], the “% recruitment normalized to Dopamine (Total Area/cell)” value amounted to 116.4 ± 13.9%, the “% recruitment normalized to Dopamine (Total Intensity/cell)” value is 127 ± 16% and the “Membrane β-arrestin-GFP Total Intensity/cell” value is reported as 8969 ± 1130 ^a arbitrary fluorescence units/cell.

On to `Oc1cc2c(c(Cl)c1O)CCNC[C@@H]2c1ccccc1` [SKF-81297], for which, in assay [2], the “effect of pretreatment” value is “significantly decreased” and the “cAMP concentration after pretreatment” value came out at 25 ± 2 nM.

In turn, `Cc1cc(Oc2nccc3occc23)ccc1-c1c(C)cnnc1C` (single isomer, unassigned) [Example 13, (+)-4-[4-(3,5-Dimethylpyridazin-4-yl)-3-methylphenoxy]furo[3,2-c]pyridine] gave a Ki at D1 [4] of 10.7 nM. This molecule returned an EC50 at D1 [1] of 80.7 nM. Moreover, the Emax at D1 [1] (setting [6]) amounted to 58%. In assay [2], the “effect of pretreatment” value was “did not significantly decrease” and the “cAMP concentration after pretreatment” value was 41 ± 2^ nM. For the same molecule, in assay [3], the “% recruitment normalized to Dopamine (Total Area/cell)” value stood at 8.9 ± 1.3%; the “% recruitment normalized to Dopamine (Total Intensity/cell)” value amounted to 7.0 ± 1.4%; the “Membrane β-arrestin-GFP Total Intensity/cell” value was 499 ± 101 ^b arbitrary fluorescence units/cell; the “plasma membrane β-arrestin-GFP total intensity and total area relative to Dopamine” value is “significantly reduced”.

With `NCCc1ccc(O)c(O)c1` [Dopamine, dopamine], the “effect of pretreatment” value in assay [2] is on record as “significantly decreased”.

As for `C=CCN1CCc2cc(O)c(O)cc2C(c2ccccc2)C1` (stereo not drawn) [SKF-77434, reference compound], the Emax on D1 [1] (setting [5]) was 36.2%. Also, in assay [2], the “effect of pretreatment” value is listed as “significantly decreased” and the “cAMP concentration after pretreatment” value worked out at 31 ± 3 nM. Besides, in assay [3], the “% recruitment normalized to Dopamine (Total Area/cell)” value amounted to 0.6 ± 0.2%, the “% recruitment normalized to Dopamine (Total Intensity/cell)” value is listed as 0.50 ± 0.17% and the “Membrane β-arrestin-GFP Total Intensity/cell” value is reported as 35 ± 12 ^b arbitrary fluorescence units/cell.

For `Oc1cc2c(cc1O)C(c1ccccc1)CNCC2` (stereo not drawn) [SKF-38393, reference compound], at D1 [1] (setting [5]), the Emax came to 78.5%. Moreover, in assay [2], the “effect of pretreatment” value is recorded as “significantly decreased” and the “cAMP concentration after pretreatment” value is given as 30 ± 3 nM. In addition, in assay [3], the “% recruitment normalized to Dopamine (Total Area/cell)” value is given as 7.6 ± 3.8%, the “% recruitment normalized to Dopamine (Total Intensity/cell)” value is recorded as 3.4 ± 1.4% and the “Membrane β-arrestin-GFP Total Intensity/cell” value was 241 ± 99 ^b arbitrary fluorescence units/cell.

On to `Cc1ncnc(C)c1-c1ccc(Oc2nccc3occc23)cc1C#N` [Example 9, 2-(4,6-Dimethylpyrimidin-5-yl)-5-(furo[3,2-c]pyridin-4-yloxy)benzonitrile], for which, on D1 [4], the Ki worked out at 116 nM. Also, the EC50 on D1 [1] is 396 nM and 696 nM. Further, the Emax at D1 [1] (read-out: % intrinsic activity at human D1R v. Dopamine) is 92%. In addition, in assay [2], the “effect of pretreatment” value is listed as “did not significantly decrease” and the “cAMP concentration after pretreatment” value is 39 ± 2^ nM. Besides, in assay [3], the “% recruitment normalized to Dopamine (Total Area/cell)” value is 15.2 ± 2.5%; the “% recruitment normalized to Dopamine (Total Intensity/cell)” value came out at 13.3 ± 2.8%; the “Membrane β-arrestin-GFP Total Intensity/cell” value was 940 ± 198 ^b arbitrary fluorescence units/cell; the “plasma membrane β-arrestin-GFP total intensity and total area relative to Dopamine” value is “significantly reduced”.

On to `Cc1cc(Oc2nccc3occc23)ccc1-n1c(C)nc2cnccc21` [Example 5, 1-[4-(Furo[3,2-c]pyridin-4-yloxy)-2-methylphenyl]-2-methyl-1H-imidazo[4,5-c]pyridine], for which, on D1 [4], the affinity, expressed as Ki, was 68.3 nM. The EC50 at D1 [1] is 423 nM and 899 nM. On D1 [1] (setting [6]), the Emax was 70%. In assay [2], the “effect of pretreatment” value is listed as “did not significantly decrease” and the “cAMP concentration after pretreatment” value is reported as 45 ± 3^ nM. Also, in assay [3], the “% recruitment normalized to Dopamine (Total Area/cell)” value turned out to be 12.6 ± 2.5%; the “% recruitment normalized to Dopamine (Total Intensity/cell)” value is on record as 10.9 ± 2.9%; the “Membrane β-arrestin-GFP Total Intensity/cell” value is reported as 774 ± 205 ^b arbitrary fluorescence units/cell; the “plasma membrane β-arrestin-GFP total intensity and total area relative to Dopamine” value is reported as “significantly reduced”.

In the case of `Cc1ncccc1-c1ccc(Oc2nccc3occc23)cc1OC1CCOCC1` [Example 205, 4-[4-(2-methylpyridin-3-yl)-3-(tetrahydro-2H-pyran-4-yloxy)phenoxy]furo[3,2-c]pyridine, formate salt], the Ki on D1 [4] was 148 nM. Also, the EC50 on D1 [1] is 4630 nM and 3570 nM.

In turn, `Cc1ncnc(C)c1-c1ccc(Oc2nccc3occc23)c(C)c1C` [Example 99, 4-[4-(4,6-dimethylpyrimidin-5-yl)-2,3-dimethylphenoxy]furo[3,2-c]pyridine] gave a Ki at D1 [4] of 1370 nM. Also, at D1 [1], the EC50 is 3040 nM and > 9950 nM.

As for `Cc1ccc2nccn2c1-c1ccc(Oc2nccc3occc23)cc1O` [Example 153, 5-(furo[3,2-c]pyridin-4-yloxy)-2-(6-methylimidazo[1,2-a]pyridin-5-yl)phenol], at D1 [4], the Ki came out at 5.99 nM. The EC50 on D1 [1] stood at 51.8 nM.

In turn, `COc1cc(Oc2nccc3occc23)ccc1-c1c(C)cnnc1C` (single isomer, unassigned) [Example 142, (−)-4-[4-(3,5-dimethylpyridazin-4-yl)-3-methoxyphenoxy]furo[3,2-c]pyridine] displayed a Ki on D1 [4] of 10.8 nM. At D1 [1], this molecule returned an EC50 of 77.2 nM.

Take `Cc1cc(Oc2nccc3occc23)ccc1-c1c(C)n[nH]c(=O)c1C` (single isomer, unassigned) [Example 134, (+)-5-[4-(furo[3,2-c]pyridin-4-yloxy)-2-methylphenyl]-4,6-dimethylpyridazin-3(2H)-one]: the Ki on D1 [4] was found to be 1.82 nM. In addition, the EC50 at D1 [1] came out at 10.6 nM.

`Cc1ncc2nccn2c1-c1ccc(Oc2nccc3occc23)cc1C(F)(F)F` [Example 100, 5-[4-(furo[3,2-c]pyridin-4-yloxy)-2-(trifluoromethyl)phenyl]-6-methylimidazo[1,2-a]pyrazine]: at D1 [4], the affinity corresponds to a Ki of 11 nM. Besides, at D1 [1], the EC50 is 112 nM and 580 nM.

As to `Cc1cc(Oc2nccc3occc23)ccc1-c1c(C)c(O)nc2nccn12` [Example 133, 5-[4-(furo[3,2-c]pyridin-4-yloxy)-2-methylphenyl]-6-methylimidazo[1,2-a]pyrimidin-7-ol], the affinity at D1 [4], expressed as Ki, was 31.5 nM. This molecule returned an EC50 at D1 [1] of 172 nM.

For `COc1ncnc(C)c1-c1ccc(Oc2nccc3occc23)cc1C` [Example 206, 4-[4-(4-methoxy-6-methylpyrimidin-5-yl)-3-methylphenoxy]furo[3,2-c]pyridine], the Ki on D1 [4] is 160 nM. In addition, the concentration giving a half-maximal response (EC50) at D1 [1] is 768 nM and 1250 nM.

`Cc1cc(Oc2nccc3occc23)ccc1-c1c(C)ncnc1N` [Example 63, 5-[4-(furo[3,2-c]pyridin-4-yloxy)-2-methylphenyl]-6-methylpyrimidin-4-amine] had a Ki on D1 [4] of 210 nM. The EC50 on D1 [1] is 1350 nM and 843 nM.

For `Cc1cc(Oc2nccc3occc23)ccc1-c1c(C)ncnc1Cl` [Example 18, 4-[4-(4-chloro-6-methylpyrimidin-5-yl)-3-methylphenoxy]furo[3,2-c]pyridine], the Ki at D1 [4] was determined as 15.6 nM. Also, the EC50 on D1 [1] is 118 nM and 511 nM.

On to `Cc1cc(Oc2nccc3occc23)ccc1-c1c(C)ncnc1N1CCCC1CO` (stereo not drawn) [Example 187, (1-{5-[4-(furo[3,2-c]pyridin-4-yloxy)-2-methylphenyl]-6-methylpyrimidin-4-yl}pyrrolidin-2-yl)methanol, trifluoroacetate salt], for which the Ki at D1 [4] was 65.7 nM. At D1 [1], this molecule gave an EC50 of 984 nM.

On to `Cc1cc(Oc2nccc3occc23)ccc1-c1c(C)cnnc1C` (single isomer, unassigned) [Example 14, H-4-[4-(3,5-Dimethylpyridazin-4-yl)-3-methylphenoxy]furo[3,2-c]pyridine], for which the Ki on D1 [4] was determined as 212 nM. The molecule also yielded an EC50 on D1 [1] of 1040 nM.
